Assay results: patent publication US7060486B2, “Inhibition of sulfate-reducing-bacteria-mediated degradation using bacteria which secrete antimicrobials” (priority 1998, dated 2006)
Square brackets hold non-standard residues; d marks the D form. Ends that are not written are not given here. Peptide text beside a SMILES is read from it. Orn = NCCC[C@H](N)C(=O)O

Legend:
[1] = system: SRB (D. vulgaris) on 304 stainless steel; test: Continuous reactor with 304 stainless steel and SRB, electrochemical impedance spectroscopy; conditions: 100 μg/mL added to P. fragi K biofilm 24 hours before D. vulgaris
Experimental: Batch culture corrosion experiments using SAE 1018 mild steel coupons (2.5 cm diameter, 1.2 mm thick) were performed in triplicates in 250 mL Erlenmeyer flasks at 30° C. without shaking as described previously (Jayaraman et al., 1997a). A continuous reactor (Jayaraman et al., 1997c) was also used to develop biofilms on 304 stainless steel and monitor corrosion using electrochemical impedance spectroscopy (EIS) in a minimum of two independent reactors using a Solarton-Schlumberger electrochemical measurement unit (SI 1280, Schlumberger Technical Instruments Division, San Jose, Calif.) interfaced to a Macintosh computer (PowerMac 7100/80, Apple Computers, Cupertino, Calif.) running EISIS electrochemical experimentation software (University of California, Irvine) (similar commercial software, THALES, can also be used). The open circuit potential (OCP) was measured as the potential between the metal specimen and a Ag/AgCl reference electrode, and the polarization resistance (Rp) was determined as the low-frequency value of the impedance (where the imaginary part of the impedance was zero or negligible). Continuous culture corrosion rates were estimated as the inverse of the polarization resistance (Macdonald, D. D. and M. C. H. McCubre, Applications of impedance spectroscopy, p. 262–267. In J. R. Macdonald (ed.), Impedance spectroscopy: Emphasizing solid materials and systems, John Wiley & Sons, New York (1987); Stem, M., Journal of Electrochemical Society, 105(11):638–647 (1958)).
A continuous reactor was used to develop biofilms on metal surfaces as previously described (Jayaraman et al., 1997c). Electrochemical impedance spectroscopy (EIS) was used to obtain impedance data in at least duplicate experiments using a Solarton-Schlumberger electrochemical measurement unit (SI 1280, Schlumberger Technical Instruments Division, San Jose, Calif.) interfaced to a Macintosh computer (PowerMac 7100/80, Apple Computers, Cupertino, Calif.) running EISIS electrochemical experimentation software (University of California, Irvine) (THALES, a similar commercial software, can also be used). The open-circuit potential (OCP) was measured as the potential between the metal specimen and the reference electrode (Ag/AgCl), and the polarization resistance was determined as the dc limit of the impedance using the ANALEIS software developed by Mansfeld et al. (ASTM Special Technical Protocol 1154:186 (1992)). […]

[2] = system: Gram-negative bacteria; conditions: cited from earlier work
[3] = system: SRB (D. vulgaris) on SAE 1018 mild steel; test: Continuous reactor with SAE 1018 mild steel and SRB, electrochemical impedance spectroscopy
Text: A continuous reactor was used to develop biofilms on metal surfaces as previously described (Jayaraman et al., 1997c). Electrochemical impedance spectroscopy (EIS) was used to obtain impedance data in at least duplicate experiments using a Solarton-Schlumberger electrochemical measurement unit (SI 1280, Schlumberger Technical Instruments Division, San Jose, Calif.) interfaced to a Macintosh computer (PowerMac 7100/80, Apple Computers, Cupertino, Calif.) running EISIS electrochemical experimentation software (University of California, Irvine) (THALES, a similar commercial software, can also be used). The open-circuit potential (OCP) was measured as the potential between the metal specimen and the reference electrode (Ag/AgCl), and the polarization resistance was determined as the dc limit of the impedance using the ANALEIS software developed by Mansfeld et al. (ASTM Special Technical Protocol 1154:186 (1992)). Continuous culture corrosion rates were estimated from the experimental polarization resistance Rp based on the Stern-Geary equation Rp=B/Icorr, where B is a parameter depending on the Tafel slopes and icorr is the corrosion current density which can be converted into a corrosion rate using Faraday's law (Mansfeld, F., The polarization resistance technique for measuring corrosion currents, In Fontana, M. G., Staehle, R. W. (ed.), Advances in Corrosion Science and Technology, Plenum Press, New York (1976)).
A 3% (vol/vol) SRB inoculum (culture age 24–48 hours) was added to the reactor after 3 to 5 days of aerobic biofilm development. […] All antimicrobials were simultaneously added to the nutrient feed and the reactor at appropriate concentrations.

[4] = system: D. gigas (ATCC 19364); test: SRB inhibitory assay: viability after one-hour exposure, MPN technique; type: cell-based
Experimental: (§1) D. vulgaris (ATCC 29579) and D. gigas (ATCC 19364) were obtained from the American Type Culture Collection and cultivated in 15 mL screwcap tubes with 10 mL of modified Baar's medium (ATCC medium 1249) supplemented with 100 μL each of the oxygen-scavengers 4% sodium sulfide and Oxyrase (Oxyrase Inc., Mansfeld, Ohio). Initial cultures were grown from −85° C. glycerol stocks; all subsequent cultures were grown with a 3% inoculum from the initial culture maintained at 30° C. without shaking. […] SRB were also cultured periodically in the presence of 0.1% ferrous ammonium sulfate, and the presence of these sulfate-reducers was confirmed by the detection of black iron sulfide in the culture tubes. The desulfoviridin assay was also performed after each MPN assay to confirm the presence of D. vulgaris or D. gigas by its red color under UV light due to the release of the chromophore of the pignment desulfoviridin. (Postgate, 1984).
(§2) For determining the viability indices (Romeo, et al., 1988) of SRB, a late-exponential phase culture (O.D600 0.16 to 0.19 which corresponded to an initial cell number of 5–9×10^4 cells/mL) was exposed to various concentrations of antimicrobials for 1 hour at 30° C. One mL of cells was harvested, washed once in fresh modified Baar's medium to remove cellular debris, and resuspended in 1 mL of fresh modified Baar's medium supplemented with 10 μL each of Oxyrase (Oxyrase Inc., Mansfeld, Ohio) and 4% sodium sulphide. Aliquots of 450 μL were dispensed in 500 μL sterile eppendorf tubes and appropriate amounts of antimicrobials added and incubated at 30° C. The effectiveness of treatment was determined by the multiple-tube most-probable-number (MPN) fermentation technique. (Anonymous. Multiple-tube fermentation technique for members of the coliform group, pp. 9–45 to 9–51. In A. E. Greenberg, L. S. Clesceri, and A. D. Eaton (eds.), Standard Methods for the Examination of Water and Wastewater, 18 ed. American Public Health Association, American Water Works Association, and Water Pollution Control Federation, New York (1992)) (hereafter, Greenberg, 1992).
(§3) The MPN test for enumerating SRB was performed in three 12 mL tubes with a 1000 μL inoculum of SRB, three 12 mL tubes with a 500 μL inoculum, and three 12 mL tubes with a 100 μL inoculum. All nine tubes contained a final volume of 10 mL of modified Baar's medium supplemented with 100 μL each of 4% sodium sulfide and Oxyrase (Oxyrase Inc., Mansfeld, Ohio). The tubes were monitored for 72 hours to determine the number of tubes that were positive for growth. Growth was determined by the increase in culture turbidity, and the MPN index/mL was calculated using the Thomas formula. (Greenberg 1992).

[5] = system: D. vulgaris (ATCC 29579); test: as above; type: cell-based
Experimental: as §1, §2, §3

[6] = system: P. fragi K; test: Growth of P. fragi K in overnight suspension cultures with antimicrobials; type: cell-based; conditions: 100 μg/mL, overnight suspension culture
[7] = system: wild-type P. fragi; test: Live/Dead stain control visualized with CSLM; type: cell-based; conditions: 200 μg ml^−1 added to 12-hour culture, visualized after 48 hours
Experimental: Cells and polysaccharide were stained for 30 min simultaneously in 4 ml of staining solution using the Live/Dead Baclit bacteria viability assay kit protocol (1.125 μl ml^−1 of each stain component, Molecular Probes (Eugene, Oreg.)) and calcofluor (300 μl ml^−1, Sigma (St. Louis, Mo.), Stewart et al. 1995). The live/dead viability kit distinguishes live and dead cells based on membrane integrity; live cells with intact membranes stain green, and dead cells with compromised membranes stain red.
As a control experiment to verify that the Live/Dead stain can be used to quantify populations with live and dead cells, 200 μg ml^−1 of kanamycin was added to a 12-hour wild-type P. fragi culture and visualized with CSLM after 48 hours.

[8] = system: E. coli BK6; test: Antimicrobial activity of concentrated culture supernatants in suspension; type: cell-based; conditions: buffer + kanamycin 100 μg/mL
Experimental: B. subtilis BE1500 containing the plasmid pBE92-based constructs expressing the antimicrobial peptide genes was grown in 25 mL of LB medium to late-exponential phase (O.D600=0.70–1.0) at 37° C. The cells were collected by centrifugation at 10,000×g for 10 mins at 4° C., and the supernatant was concentrated 25-fold using a SpeedVac concentrator (Model 200H, Savant Instruments Inc., Holbrook, N.Y.).
Expression of indolicidin and bactenecin in Bacillus was determined in duplicates by exposing E. coli BK6 in suspension to concentrated culture supernatants. E. coli BK6 was grown to an O.D600 of 0.20–0.25, pelleted at room temperature, and resuspended in different volumes (50 or 100 μL) of the concentrated supernatant. The cell suspension was incubated at 30° C. for 1 hour without aeration, and appropriate dilutions were plated on LB agar plates to determine the antimicrobial activity of the supernatant.

[9] = system: B. polymyxa 10401; test: Susceptibility of host strains to purified antimicrobials (plate counts); type: cell-based; conditions: one hour exposure at 30° C.
Experimental: (§4) To determine the susceptibility of the hosts B. subtilis BE1500 and B. polymyxa to the expressed antimicrobials, these strains were grown from a single colony in 25 mL of LB medium with shaking at 37° C. to an O.D600 of 0.40–0.45. One mL aliquots were collected, washed with fresh LB medium and resuspended in 100 μL fresh LB medium in sterile eppendorf tubes. The antimicrobials indolicidin and bactenecin were added (50–100 μg/mL) and the tubes were incubated at 30° C. for one hour without shaking. Appropriate dilutions were spread on LB agar plates and incubated overnight at 37° C. to determine the extent of survival. The results were confirmed by performing two independent experiments.

[10] = system: B. subtilis BE1500; test: as above; type: cell-based; conditions: one hour exposure at 30° C.
Experimental: as §4

[11] = system: Escherichia coli; conditions: 5–25 μg/mL; cited from earlier work
[12] = system: Staphylococcus aureus; conditions: 5–25 μg/mL; cited from earlier work
[13] = system: B. subtilis WB600; test: Susceptibility of host strains to purified antimicrobials (plate counts); type: cell-based; conditions: one hour exposure at 30° C.

CC(C)C[C@@H]1NC(=O)[C@H](CCCN)NC(=O)[C@H](C(C)C)NC(=O)[C@@H]2CCCN2C(=O)[C@@H](Cc2ccccc2)NC(=O)[C@H](CC(C)C)NC(=O)[C@H](CCCN)NC(=O)[C@H](C(C)C)NC(=O)[C@@H]2CCCN2C(=O)[C@@H](Cc2ccccc2)NC1=O [gramicidin S] (cyclo(V[Orn]L[dF]PV[Orn]L[dF]P))
effect on D. vulgaris, in words [1]: completely effective in inhibiting the growth of D. vulgaris | concentration that completely inhibits growth [2]: 3 to 12.5 µg/mL | effect on D. vulgaris, in words ([3]; 100 μg/mL added to P. fragi K biofilm 24 hours before D. vulgaris): the onset of D. vulgaris-induced corrosion of mild steel was delayed | time after D. vulgaris addition without change / increase in Rp ([3]; 100 μg/mL added to P. fragi K biofilm before D. vulgaris): ≥ 80 h | reduction of viability ([4]; D. gigas, 1 h, 25 μg/mL): 92–96% | concentration with inhibitory effect ([4]; this study): 50 to 100 µg/mL | reduction of viability ([5]; D. vulgaris, 1 h, 100 μg/mL): 93% | concentration with inhibitory effect ([5]; this study): 50 to 100 µg/mL | growth of P. fragi K, in words [6]: grew to saturation

NC[C@H]1O[C@H](O[C@H]2[C@H](O)[C@@H](O[C@H]3O[C@H](CO)[C@@H](O)[C@H](N)[C@H]3O)[C@H](N)C[C@@H]2N)[C@H](O)[C@@H](O)[C@@H]1O [kanamycin]
red (dead) share of the sample [7]: approximately 75% | inhibition at 100 µg/mL ([8]; Escherichia coli, BK6): 100% | E. coli BK6 CFU/mL [8]: 4 × 10^3 CFU/mL

ILPWKWPWWWPWRR [Ind-OH]
Fold-reduction in cell number ([9]; 50 μg/mL): 4 | Fold-reduction in cell number ([9]; 100 μg/mL): 4 | Fold-reduction in cell number ([10]; 50 μg/mL): 6000 | Fold-reduction in cell number ([10]; 100 μg/mL): 10,000 | inhibition [11]: 99.9% | inhibition [12]: 99.9% | fold less effective than the amidated form of indolicidin ([4]; 25 μg/mL): 10 fold | fold less effective than the amidated form of indolicidin ([5]; 25 μg/mL): 174 fold | Fold-reduction in cell number ([13]; 50 μg/mL): 20,000 | Fold-reduction in cell number ([13]; 100 μg/mL): 40,000
